Measured values published in PubChem BioAssay (NCI).
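96-well plates; 48 h exposure; 5 concentrations. Endpoints by linear interpolation between flanking doses. Not reached: highest tested concentration assigned. Definition used: TGI = concentration required for complete inhibition of growth.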

Experiments:
Assay in all cases: NCI anticancer screen, dose series, 48 h
[1] = system: 786-0 renal
[2] = system: A498 renal
[3] = system: A549 NSCLC
[4] = system: ACHN renal
[5] = system: CAKI-1 renal
[6] = system: CCRF-CEM leukemia
[7] = system: COLO 205 colon
[8] = system: DU-145 prostate
[9] = system: EKVX NSCLC
[10] = system: HCC-2998 colon
[11] = system: HCT-116 colon
[12] = system: HCT-15 colon
[13] = system: HL-60(TB) leukemia
[14] = system: HOP-62 NSCLC
[15] = system: HOP-92 NSCLC
[16] = system: HS 578T breast
[17] = system: HT29 colon
[18] = system: IGROV1 ovarian
[19] = system: K-562 leukemia
[20] = system: KM12 colon
[21] = system: LOX IMVI melanoma
[22] = system: M14 melanoma
[23] = system: MALME-3M melanoma
[24] = system: MCF7 breast
[25] = system: MDA-MB-231 breast
[26] = system: MDA-MB-435
[27] = system: MOLT-4 leukemia
[28] = system: NCI-H226 lung
[29] = system: NCI-H23 lung
[30] = system: NCI-H460 lung
[31] = system: NCI-H522 lung
[32] = system: NCI/ADR-RES ovarian
[33] = system: OVCAR-3 ovarian
[34] = system: OVCAR-4 ovarian
[35] = system: OVCAR-5 ovarian
[36] = system: OVCAR-8 ovarian
[37] = system: PC-3 prostate
[38] = system: RPMI-8226 leukemia
[39] = system: RXF 393 renal
[40] = system: SF-268 CNS
[41] = system: SF-295 CNS
[42] = system: SF-539 CNS
[43] = system: SK-MEL-2 melanoma
[44] = system: SK-MEL-28 melanoma
[45] = system: SK-MEL-5 melanoma
[46] = system: SN12C renal
[47] = system: SNB-19 CNS
[48] = system: SNB-75 CNS
[49] = system: SR leukemia
[50] = system: SW-620 colon
[51] = system: T-47D breast
[52] = system: TK-10 renal
[53] = system: U251 CNS
[54] = system: UACC-257 melanoma
[55] = system: UACC-62 melanoma
[56] = system: UO-31 renal

For `CNc1ccc2c(c1)Cc1ccccc1-2`, the TGI [1] was > 100 µM, the TGI [2] was 71.1 µM and the TGI [3] was 56.2 µM. For the same compound, the TGI [4] was > 100 µM, the TGI [5] was 90.7 µM and the TGI [6] was > 100 µM. For the same compound, the TGI [7] was > 100 µM, the TGI [8] was > 100 µM and the TGI [9] was > 100 µM. The TGI [10] was > 100 µM, the TGI [11] was > 100 µM and the TGI [12] was > 100 µM. For the same compound, the TGI [13] was > 100 µM, the TGI [14] was > 100 µM and the TGI [15] was 64.1 µM. For the same compound, the TGI [16] was 91.5 µM, the TGI [17] was > 100 µM and the TGI [18] was > 100 µM. The TGI [19] was > 100 µM, the TGI [20] was 99.5 µM and the TGI [21] was > 100 µM. For the same compound, the TGI [22] was 71.3 µM, the TGI [23] was > 100 µM and the TGI [24] was > 100 µM. For the same compound, the TGI [25] was > 100 µM, the TGI [26] was 69.3 µM and the TGI [27] was 98.7 µM. The TGI [28] was > 100 µM, the TGI [29] was > 100 µM and the TGI [30] was > 100 µM. For the same compound, the TGI [31] was 50.8 µM, the TGI [32] was > 100 µM and the TGI [33] was 62.5 µM. The TGI [34] was > 100 µM, the TGI [35] was > 100 µM and the TGI [36] was 59.6 µM. For the same compound, the TGI [37] was > 100 µM, the TGI [38] was > 100 µM and the TGI [39] was > 100 µM. The TGI [40] was > 100 µM, the TGI [41] was > 100 µM and the TGI [42] was > 100 µM. The TGI [43] was > 100 µM, the TGI [44] was > 100 µM and the TGI [45] was 74.7 µM. For the same compound, the TGI [46] was > 100 µM, the TGI [47] was > 100 µM and the TGI [48] was > 100 µM. For the same compound, the TGI [49] was 91.2 µM, the TGI [50] was > 100 µM and the TGI [51] was > 100 µM. The TGI [52] was 93.8 µM, the TGI [53] was > 100 µM and the TGI [54] was > 100 µM. The TGI [55] was 89.7 µM and the TGI [56] was > 100 µM.
